According to ChEMBL document CHEMBL5385907, “Proline-Hinged α-Helical Peptides Sensitize Gram-Positive Antibiotics, Expanding Their Physicochemical Properties to Be Used as Gram-Negative Antibiotics” (J Med Chem, 2024):
Values after ≈ are worked out from the molar mass of the structure shown. Active and inactive are the calls of the source. The calls are words filed in the database; no cut-off is given here. Residues, ends and D or L forms follow the SMILES beside them.

Assays:
Klebsiella pneumoniae [1] = experiment: Potentiation of fusidic acid induced antibacterial activity against Klebsiella pneumoniae ATCC 700603 assessed as decrease in bacterial growth at 0.4 uM incubated for 18 hrs in presence of fusidic acid by two fold serial dilution assay; format: functional, organism-based
Escherichia coli [2] = experiment: Potentiation of erythromycin induced antibacterial activity against Escherichia coli ATCC 25922 assessed as decrease in bacterial growth at 0.4 uM incubated for 18 hrs in presence of erythromycin by two fold serial dilution assay; format: functional, organism-based
Acinetobacter baumannii [3] = experiment: Potentiation of novobiocin induced antibacterial activity against Acinetobacter baumannii ATCC 17978 assessed as decrease in bacterial growth at 0.4 uM incubated for 18 hrs in presence of novobiocin by two fold serial dilution assay; format: functional, organism-based
Escherichia coli [4] = experiment: Antibacterial activity against Escherichia coli ATCC 25922 assessed as inhibition of bacterial growth incubated for 18 hrs by two fold serial dilution assay; format: functional
[5] = Hydrophobicity of the compound assessed as retention time by reversed-phase HPLC analysis; format: physicochemical
Klebsiella pneumoniae [6] = experiment: Potentiation of erythromycin induced antibacterial activity against Klebsiella pneumoniae ATCC 700603 assessed as decrease in bacterial growth at 0.4 uM incubated for 18 hrs in presence of erythromycin by two fold serial dilution assay; format: functional, organism-based
Acinetobacter baumannii [7] = experiment: Potentiation of erythromycin induced antibacterial activity against Acinetobacter baumannii ATCC 17978 assessed as decrease in bacterial growth at 0.4 uM incubated for 18 hrs in presence of erythromycin by two fold serial dilution assay; format: functional, organism-based
Escherichia coli [8] = experiment: Potentiation of novobiocin induced antibacterial activity against Escherichia coli ATCC 25922 assessed as decrease in bacterial growth at 0.4 uM incubated for 18 hrs in presence of novobiocin by two fold serial dilution assay; format: functional, organism-based
Escherichia coli [9] = experiment: Potentiation of fusidic acid induced antibacterial activity against Escherichia coli ATCC 25922 assessed as decrease in bacterial growth at 0.4 uM incubated for 18 hrs in presence of fusidic acid by two fold serial dilution assay; format: functional, organism-based
Klebsiella pneumoniae [10] = experiment: Antibacterial activity against Klebsiella pneumoniae ATCC 700603 assessed as inhibition of bacterial growth incubated for 18 hrs by two fold serial dilution assay; format: functional
[11] = Hemolytic activity in human blood assessed as hemolysis incubated for 6 hrs by microplate reader analysis; format: toxicity, tissue-based
Acinetobacter baumannii [12] = experiment: Potentiation of fusidic acid induced antibacterial activity against Acinetobacter baumannii ATCC 17978 assessed as decrease in bacterial growth at 0.4 uM incubated for 18 hrs in presence of fusidic acid by two fold serial dilution assay; format: functional, organism-based
Acinetobacter baumannii [13] = experiment: Antibacterial activity against Acinetobacter baumannii ATCC 17978 assessed as inhibition of bacterial growth incubated for 18 hrs by two fold serial dilution assay; format: functional
Klebsiella pneumoniae [14] = experiment: Potentiation of novobiocin induced antibacterial activity against Klebsiella pneumoniae ATCC 700603 assessed as decrease in bacterial growth at 0.4 uM incubated for 18 hrs in presence of novobiocin by two fold serial dilution assay; format: functional, organism-based

Row | Compound | Activity (Klebsiella pneumoniae [1]) | Activity (Escherichia coli [2]) | Activity (Acinetobacter baumannii [3]) | MIC (Escherichia coli [4]) [µM] | Retention_time [5] [min] | Activity (Klebsiella pneumoniae [6]) | Activity (Acinetobacter baumannii [7]) | Activity (Escherichia coli [8]) | Activity (Escherichia coli [9]) | MIC (Klebsiella pneumoniae [10]) [µM] | MHC10 [11] [µM] | Activity (Acinetobacter baumannii [12]) | MIC (Acinetobacter baumannii [13]) [µM] | Activity (Klebsiella pneumoniae [14])
1 | CC(=O)N[C@@H](CCCCN)C(=O)N[C@@H](CCCCN)C(=O)N[C@@H](CC(C)C)C(=O)N[C@@H](CC(C)C)C(=O)N[C@@H](CCCCN)C(=O)N[C@@H](CC(C)C)C(=O)N[C@@H](CC(C)C)C(=O)N[C@@H](CCCCN)C(=O)N[C@@H](CCCCN)C(=O)N1CCC[C@H]1C(=O)N[C@@H](CC(C)C)C(=O)N[C@@H](CCCCN)C(=O)N[C@@H](CC(C)C)C(=O)N[C@@H](CC(C)C)C(=O)N[C@@H](CCCCN)C(N)=O | Active | Active | Active | > 80 | 18.2 | Active | Active | Active | Active | > 80 | > 160 | Active | 10 (≈ 18.5 µg/mL) | Active
2 | CCCC(=O)N[C@@H](CC(N)=O)C(=O)N[C@@H](Cc1c[nH]cn1)C(=O)N[C@@H](CCCCN)C(=O)N[C@@H](CCCCN)C(=O)N[C@@H](C)C(=O)N[C@@H](CC(C)C)C(=O)N[C@@H](CCCCN)C(=O)N[C@@H](CC(C)C)C(=O)N[C@@H](C)C(=O)N[C@@H](CCCCN)C(=O)N[C@@H](CCCCN)C(=O)N1CCC[C@H]1C(=O)N[C@@H](CC(C)C)C(=O)N[C@@H](CCCCN)C(=O)N[C@@H](CC(C)C)C(=O)N[C@@H](CC(C)C)C(=O)N[C@@H](CCCCN)C(=O)N[C@@H](CS)C(N)=O (HELM PEPTIDE1{[CCCC(=O)[*:2]].N.H.K.K.A.L.K.L.A.K.K.P.L.K.L.L.K.C.[am]}$$$$V2.0) | – | – | – | > 80 | 16.1 | – | – | – | – | > 80 | > 160 | – | > 80 | –
3 | CCCCCC(=O)N[C@@H](CCCCN)C(=O)N[C@@H](CCCCN)C(=O)N[C@@H](C)C(=O)N[C@@H](CC(C)C)C(=O)N[C@@H](CCCCN)C(=O)N[C@@H](CC(C)C)C(=O)N[C@@H](C)C(=O)N[C@@H](CCCCN)C(=O)N[C@@H](CCCCN)C(=O)N1CCC[C@H]1C(=O)N[C@@H](CC(C)C)C(=O)N[C@@H](CCCCN)C(=O)N[C@@H](CC(C)C)C(=O)N[C@@H](CC(C)C)C(=O)N[C@@H](CCCCN)C(N)=O (HELM PEPTIDE1{[CCCCCC(=O)[*:2]].K.K.A.L.K.L.A.K.K.P.L.K.L.L.K.[am]}$$$$V2.0) | – | – | – | > 80 | 17.1 | – | – | – | – | > 80 | > 160 | – | 80 (≈ 145 µg/mL) | –
4 | CCCCCCCCCC(=O)N[C@@H](CCCCN)C(=O)N[C@@H](CCCCN)C(=O)N[C@@H](C)C(=O)N[C@@H](CC(C)C)C(=O)N[C@@H](CCCCN)C(=O)N[C@@H](CC(C)C)C(=O)N[C@@H](C)C(=O)N[C@@H](CCCCN)C(=O)N[C@@H](CCCCN)C(=O)N1CCC[C@H]1C(=O)N[C@@H](CC(C)C)C(=O)N[C@@H](CCCCN)C(=O)N[C@@H](CC(C)C)C(=O)N[C@@H](CC(C)C)C(=O)N[C@@H](CCCCN)C(N)=O (HELM PEPTIDE1{[CCCCCCCCCC(=O)[*:2]].K.K.A.L.K.L.A.K.K.P.L.K.L.L.K.[am]}$$$$V2.0) | – | – | – | 40 (≈ 74.9 µg/mL) | 19.4 | – | – | – | – | > 80 | > 160 | – | 5 (≈ 9.37 µg/mL) | –
5 | CCCCCCCCCCCC(=O)N[C@@H](CCCCN)C(=O)N[C@@H](CCCCN)C(=O)N[C@@H](C)C(=O)N[C@@H](CC(C)C)C(=O)N[C@@H](CCCCN)C(=O)N[C@@H](CC(C)C)C(=O)N[C@@H](C)C(=O)N[C@@H](CCCCN)C(=O)N[C@@H](CCCCN)C(=O)N1CCC[C@H]1C(=O)N[C@@H](CC(C)C)C(=O)N[C@@H](CCCCN)C(=O)N[C@@H](CC(C)C)C(=O)N[C@@H](CC(C)C)C(=O)N[C@@H](CCCCN)C(N)=O (HELM PEPTIDE1{[CCCCCCCCCCCC(=O)[*:2]].K.K.A.L.K.L.A.K.K.P.L.K.L.L.K.[am]}$$$$V2.0) | – | – | – | 10 (≈ 19 µg/mL) | 20.4 | – | – | – | – | 80 (≈ 152 µg/mL) | 160 | – | 2.5 (≈ 4.75 µg/mL) | –
6 | CCCCCCCCCCCCCC(=O)N[C@@H](CCCCN)C(=O)N[C@@H](CCCCN)C(=O)N[C@@H](C)C(=O)N[C@@H](CC(C)C)C(=O)N[C@@H](CCCCN)C(=O)N[C@@H](CC(C)C)C(=O)N[C@@H](C)C(=O)N[C@@H](CCCCN)C(=O)N[C@@H](CCCCN)C(=O)N1CCC[C@H]1C(=O)N[C@@H](CC(C)C)C(=O)N[C@@H](CCCCN)C(=O)N[C@@H](CC(C)C)C(=O)N[C@@H](CC(C)C)C(=O)N[C@@H](CCCCN)C(N)=O (HELM PEPTIDE1{[CCCCCCCCCCCCCC(=O)[*:2]].K.K.A.L.K.L.A.K.K.P.L.K.L.L.K.[am]}$$$$V2.0) | – | – | – | 5 (≈ 9.65 µg/mL) | 21.7 | – | – | – | – | 20 (≈ 38.6 µg/mL) | 53 | – | 1.3 (≈ 2.51 µg/mL) | –
7 | CCCCCCCCCCCCCCCC(=O)N[C@@H](CCCCN)C(=O)N[C@@H](CCCCN)C(=O)N[C@@H](C)C(=O)N[C@@H](CC(C)C)C(=O)N[C@@H](CCCCN)C(=O)N[C@@H](CC(C)C)C(=O)N[C@@H](C)C(=O)N[C@@H](CCCCN)C(=O)N[C@@H](CCCCN)C(=O)N1CCC[C@H]1C(=O)N[C@@H](CC(C)C)C(=O)N[C@@H](CCCCN)C(=O)N[C@@H](CC(C)C)C(=O)N[C@@H](CC(C)C)C(=O)N[C@@H](CCCCN)C(N)=O (HELM PEPTIDE1{[CCCCCCCCCCCCCCCC(=O)[*:2]].K.K.A.L.K.L.A.K.K.P.L.K.L.L.K.[am]}$$$$V2.0) | – | – | – | 5 (≈ 9.79 µg/mL) | 22.9 | – | – | – | – | 10 (≈ 19.6 µg/mL) | 5.9 | – | 1.3 (≈ 2.55 µg/mL) | –
8 | NCC[C@H](O)C(=O)N[C@@H]1C[C@H](N)[C@@H](O[C@H]2O[C@H](CN)[C@@H](O)[C@H](O)[C@H]2O)[C@H](O)[C@H]1O[C@H]1O[C@H](CO)[C@@H](O)[C@H](N)[C@H]1O [AMIKACIN] | – | – | – | 5 (≈ 2.93 µg/mL) | – | – | – | – | – | 2.5 (≈ 1.46 µg/mL) | – | – | 2.5 (≈ 1.46 µg/mL) | –
9 | Ac-AKLLKLLKKPLKLLK-NH2 | Active | Active | Active | > 80 | 19.2 | Active | Active | Active | Active | > 80 | > 160 | Active | 40 | Active
10 | Ac-KALLKLLKKPLKLLK-NH2 | Active | Active | Active | > 80 | 19.4 | Active | Active | Active | Active | > 80 | > 160 | Active | 20 | Active
11 | Ac-KKALKLAKKPLKLLK-NH2 | – | – | – | > 80 | 15.3 | – | – | – | – | > 80 | > 160 | – | > 80 | –
12 | Ac-KKALKLLKKPLKLLK-NH2 | Active | Active | Active | > 80 | 16.7 | Active | Active | Active | Active | > 80 | > 160 | Active | > 80 | Active
13 | Ac-KKLAKLLKKPLKLLK-NH2 | Active | Active | Active | > 80 | 17.1 | Active | Active | Active | Active | > 80 | > 160 | Active | 80 | Active
14 | Ac-KLLKLLKKPLKL-NH2 | – | – | – | > 80 | 18 | – | – | – | – | > 80 | > 160 | – | > 80 | –
15 | Ac-KLLKLLKKPLKLL-NH2 | – | – | – | > 80 | 19.4 | – | – | – | – | > 80 | > 160 | – | 20 | –
16 | Ac-KLLKLLKKPLKLLKK-NH2 | – | – | – | > 80 | 18.2 | – | – | – | – | > 80 | > 160 | – | 20 | –
17 | Ac-KLLKLLKKPLKLLKKL-NH2 | – | – | – | > 80 | 19.7 | – | – | – | – | 40 | > 160 | – | 5 | –
18 | Ac-LKKLLKLLKKPLKLLK-NH2 | – | – | – | > 10 | 20.1 | – | – | – | – | 2.5 | 53 | – | 1.3 | –
19 | Ac-LKLLKKPLKLLK-NH2 | – | – | – | > 80 | 18 | – | – | – | – | > 80 | > 160 | – | > 80 | –
20 | Ac-LLKLLKKPLKLLK-NH2 | – | – | – | > 80 | 19.8 | – | – | – | – | > 80 | > 160 | – | > 80 | –
